Measurements published in PubChem BioAssay AID256 (DTP/NCI, 2004).
Several values for one entry are separate records, joined by “and”; a condition that tells them apart may be missing. Equal entries are not always repeated. Toxic doses and inconclusive results are not listed.

Test system: CD2F1 mice, L1210 leukemia ip, survival T/C
Assay: NCI In Vivo Anticancer Drug Screen. Data for tumor model L1210 Leukemia (intraperitoneal) in CD2F1 (CDF1) mice
Details: higher = longer survival
Method in brief: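 Compound-dosed mice with transplantable tumor versus matched vehicle controls; endpoint ratio T/C reported.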

[1] = endpoint: median survival time, dose: 6.25 mg/kg/injection, schedule: Q04DX003 (ip), vehicle: saline
[2] = endpoint: median survival time, dose: 25.0 mg/kg/injection, schedule: Q04DX003 (ip), vehicle: saline
[3] = endpoint: median survival time, dose: 50.0 mg/kg/injection, schedule: Q04DX003 (ip), vehicle: saline
[4] = endpoint: mean survival time, dose: 100.0 mg/kg/injection, schedule: Q01DX009 (ip), vehicle: saline with Tween-80
[5] = endpoint: mean survival time, dose: 100.0 mg/kg/injection, schedule: Q04DX003 (ip), vehicle: saline with Tween-80
[6] = endpoint: mean survival time, dose: 200.0 mg/kg/injection, schedule: Q04DX003 (ip), vehicle: saline with Tween-80
[7] = endpoint: mean survival time, dose: 100.0 mg/kg/injection, schedule: Q01DX001 (ip), vehicle: saline with Tween-80
[8] = endpoint: mean survival time, dose: 200.0 mg/kg/injection, schedule: Q01DX001 (ip), vehicle: saline with Tween-80
[9] = endpoint: mean survival time, dose: 200.0 mg/kg/injection, schedule: Q01DX009 (ip), vehicle: saline with Tween-80
[10] = endpoint: mean survival time, dose: 400.0 mg/kg/injection, schedule: Q01DX001 (ip), vehicle: saline with Tween-80
[11] = endpoint: mean survival time, dose: 400.0 mg/kg/injection, schedule: Q01DX009 (ip), vehicle: saline with Tween-80
[12] = endpoint: mean survival time, dose: 400.0 mg/kg/injection, schedule: Q04DX003 (ip), vehicle: saline with Tween-80
[13] = endpoint: mean survival time, dose: 100.0 mg/kg/injection, schedule: Q04DX002 (ip), vehicle: saline with Tween-80
[14] = endpoint: mean survival time, dose: 200.0 mg/kg/injection, schedule: Q04DX002 (ip), vehicle: saline with Tween-80
[15] = endpoint: mean survival time, dose: 400.0 mg/kg/injection, schedule: Q04DX002 (ip), vehicle: saline with Tween-80
[16] = endpoint: mean survival time, dose: 100.0 mg/kg/injection, schedule: Q04DX003 (ip), vehicle: saline

`CCC(CO)[N-]CC[N-]C(CC)CO.[Cl][Pt+2][Cl]` (stereo unspecified) was tested, and the T/C [1] was 101 % of control, the T/C (endpoint: median survival time, dose: 12.5 mg/kg/injection, schedule: Q04DX003 (ip), vehicle: saline) was 107 % of control and the T/C [2] was 109 % of control. The T/C [3] was 121 % of control.

For `Nc1ccc(Nc2ccccc2C(=O)O)cc1`, the T/C (endpoint: mean survival time, dose: 50.0 mg/kg/injection, schedule: Q01DX009 (ip), vehicle: saline with Tween-80) was 95 % of control, the T/C [4] was 103 % of control and the T/C [5] was 105 % of control. The T/C [6] was 97 % of control.

For `NS(=O)(=O)O`, the T/C (endpoint: mean survival time, dose: 12.5 mg/kg/injection, schedule: Q04DX003 (ip), vehicle: saline) was 98 % of control, the T/C (endpoint: mean survival time, dose: 25.0 mg/kg/injection, schedule: Q04DX003 (ip), vehicle: saline) was 110 % of control and the T/C (endpoint: mean survival time, dose: 50.0 mg/kg/injection, schedule: Q04DX003 (ip), vehicle: saline) was 102 % of control.

For `CON=C(/C=C\c1ccccc1)/C=C/c1ccccc1`, the T/C [7] was 102 % of control, the T/C [4] was 103 % of control and the T/C [8] was 98 % of control. The T/C [9] was 101 % of control, the T/C [10] was 93 % of control and the T/C [11] was 97 % of control.

For `Nc1cc(S(=O)(=O)c2ccc(/C=C/c3ccccc3)c(N)c2)ccc1/C=C/c1ccccc1`, the T/C [4] was 93 % of control, the T/C [9] was 94 % of control and 88 % of control and the T/C [11] was 91 % of control.

In the case of `Cc1ccccc1N=Cc1ccc(N(C)C)cc1`, the T/C [4] is reported as 96 % of control, the T/C [5] is reported as 97 % of control and the T/C [9] is reported as 95 % of control. The T/C [6] was 103 % of control, the T/C [11] was 90 % of control and the T/C [12] was 98 % of control.

For `Cn1nc(NC(=O)C(F)(F)F)c2ncc(-c3ccccc3)nc21`, the T/C [5] was 91 % of control, the T/C [6] was 87 % of control and the T/C [12] was 91 % of control.

With `CCCCCn1c(CN2CCCCC2)nc2c1-c1ccccc1C(=O)C2=O` the T/C [5] was 96 % of control, the T/C [6] was 103 % of control and the T/C [12] was 103 % of control.

In the case of `Nc1nc(N)c2c(n1)=NC(c1cccc3ccccc13)N=2` (stereo unspecified), the T/C (endpoint: mean survival time, dose: 6.25 mg/kg/injection, schedule: Q01DX005 (ip), vehicle: water) is reported as 92 % of control, the T/C (endpoint: mean survival time, dose: 12.5 mg/kg/injection, schedule: Q01DX005 (ip), vehicle: water) is reported as 89 % of control and the T/C (endpoint: mean survival time, dose: 25.0 mg/kg/injection, schedule: Q01DX005 (ip), vehicle: water) is reported as 91 % of control. The T/C (endpoint: mean survival time, dose: 50.0 mg/kg/injection, schedule: Q01DX005 (ip), vehicle: water) was 92 % of control, the T/C (endpoint: mean survival time, dose: 100.0 mg/kg/injection, schedule: Q01DX005 (ip), vehicle: water) was 89 % of control and the T/C (endpoint: mean survival time, dose: 200.0 mg/kg/injection, schedule: Q01DX005 (ip), vehicle: other) was 96 % of control. For the same compound, the T/C (endpoint: mean survival time, dose: 400.0 mg/kg/injection, schedule: Q01DX005 (ip), vehicle: other) was 96 % of control.

With `C/C(CCc1cnc2ccccc2c1)=N/NC(N)=O` the T/C [13] was 96 % of control, the T/C [14] was 88 % of control and the T/C [15] was 103 % of control.

`O=C(O)C1CCC(C(=O)O)CC1.[NH-]C1CCCCC1[NH-].[Pt+2]` (stereo unspecified) was tested, and the T/C (endpoint: median survival time, dose: 3.12 mg/kg/injection, schedule: Q04DX003 (ip), vehicle: saline) was 123 % of control and 112 % of control, the T/C [1] was 122 % of control and the T/C [2] was 168 % of control. For the same compound, the T/C [3] was 207 % of control and 237 % of control, the T/C (endpoint: median survival time, dose: 100.0 mg/kg/injection, schedule: Q04DX003 (ip), vehicle: saline) was 287 % of control and 365 % of control and the T/C (endpoint: median survival time, dose: 200.0 mg/kg/injection, schedule: Q04DX003 (ip), vehicle: saline) was 87 % of control and 89 % of control.

For `Clc1cc(Cl)c(OCC#CI)cc1Cl`, the T/C (endpoint: mean survival time, dose: 50.0 mg/kg/injection, schedule: Q01DX001 (ip), vehicle: carboxymethylcellulose (CMC)) was 91 % of control, the T/C (endpoint: mean survival time, dose: 100.0 mg/kg/injection, schedule: Q01DX001 (ip), vehicle: carboxymethylcellulose (CMC)) was 102 % of control and the T/C (endpoint: mean survival time, dose: 200.0 mg/kg/injection, schedule: Q01DX001 (ip), vehicle: carboxymethylcellulose (CMC)) was 91 % of control. For the same compound, the T/C (endpoint: mean survival time, dose: 400.0 mg/kg/injection, schedule: Q01DX001 (ip), vehicle: carboxymethylcellulose (CMC)) was 89 % of control.

With `CCOC(=O)C(OC(C)=O)c1ccccc1` (stereo unspecified) the T/C [4] was 98 % of control, the T/C [9] was 93 % of control and the T/C [11] was 96 % of control.

For `CCCCC/C(C)=C(/C#N)C(=O)OCC`, the T/C (endpoint: mean survival time, dose: 75.0 mg/kg/injection, schedule: Q01DX001 (ip), vehicle: saline) was 97 % of control, the T/C (endpoint: mean survival time, dose: 150.0 mg/kg/injection, schedule: Q01DX001 (ip), vehicle: saline) was 96 % of control and the T/C (endpoint: mean survival time, dose: 300.0 mg/kg/injection, schedule: Q01DX001 (ip), vehicle: saline) was 97 % of control.

For `CC[n+]1c(-c2ccccc2)c2cc(N)ccc2c2ccc(N)cc21`, the T/C (endpoint: mean survival time, dose: 1.0 mg/kg/injection, schedule: Q01DX009 (ip), vehicle: water) was 106 % of control, the T/C (endpoint: mean survival time, dose: 2.0 mg/kg/injection, schedule: Q01DX009 (ip), vehicle: water) was 112 % of control and the T/C (endpoint: mean survival time, dose: 2.5 mg/kg/injection, schedule: Q01DX005 (ip), vehicle: water) was 101 % of control. For the same compound, the T/C (endpoint: mean survival time, dose: 4.0 mg/kg/injection, schedule: Q01DX009 (ip), vehicle: water) was 116 % of control, the T/C (endpoint: mean survival time, dose: 5.0 mg/kg/injection, schedule: Q01DX005 (ip), vehicle: water) was 105 % of control and the T/C (endpoint: mean survival time, dose: 8.0 mg/kg/injection, schedule: Q01DX009 (ip), vehicle: water) was 122 % of control. For the same compound, the T/C (endpoint: mean survival time, dose: 10.0 mg/kg/injection, schedule: Q01DX005 (ip), vehicle: water) was 114 % of control and the T/C (endpoint: mean survival time, dose: 16.0 mg/kg/injection, schedule: Q01DX009 (ip), vehicle: water) was 104 % of control.

`Cn1c(=O)cc(C(=O)NCCCN2CCOCC2)c2ccccc21` was tested, and the T/C [5] was 92 % of control, the T/C [6] was 96 % of control and the T/C [12] was 87 % of control.

`O=[N+]([O-])c1cccc2ccccc12` was tested, and the T/C [16] was 101 % of control, the T/C (endpoint: mean survival time, dose: 200.0 mg/kg/injection, schedule: Q04DX003 (ip), vehicle: saline) was 103 % of control and the T/C (endpoint: mean survival time, dose: 400.0 mg/kg/injection, schedule: Q04DX003 (ip), vehicle: saline) was 86 % of control.

For `C[C@]1(O)CC[C@H]2[C@@H]3CCC4=CC(=O)CC[C@]4(C)[C@@]3(Cl)[C@@H](O)C[C@@]21C`, the T/C (endpoint: mean survival time, dose: 100.0 mg/kg/injection, schedule: Q04DX003 (ip), vehicle: saline sonified) was 101 % of control, the T/C (endpoint: mean survival time, dose: 176.0 mg/kg/injection, schedule: Q04DX003 (ip), vehicle: saline with Tween-80) was 91 % of control and the T/C (endpoint: mean survival time, dose: 200.0 mg/kg/injection, schedule: Q04DX003 (ip), vehicle: saline sonified) was 107 % of control. The T/C (endpoint: mean survival time, dose: 264.0 mg/kg/injection, schedule: Q04DX003 (ip), vehicle: saline with Tween-80) was 96 % of control and the T/C [12] was 94 % of control.

In the case of `OC(c1ccccc1)(c1ccccc1)c1ccccc1C(O)(c1ccccc1)c1ccccc1`, the T/C (endpoint: mean survival time, dose: 100.0 mg/kg/injection, schedule: Q01DX001 (ip), vehicle: Klucel (hydroxypropylcellulose) (HPC)) is reported as 90 % of control and the T/C (endpoint: mean survival time, dose: 200.0 mg/kg/injection, schedule: Q01DX001 (ip), vehicle: Klucel (hydroxypropylcellulose) (HPC)) is reported as 90 % of control.

For `O=C(C1CC1c1ccccc1)N1CCC(Nc2ccccc2)CC1` (stereo unspecified), the T/C (endpoint: mean survival time, dose: 100.0 mg/kg/injection, schedule: Q04DX002 (ip), vehicle: other) was 102 % of control, the T/C (endpoint: mean survival time, dose: 200.0 mg/kg/injection, schedule: Q04DX002 (ip), vehicle: other) was 94 % of control and the T/C (endpoint: mean survival time, dose: 400.0 mg/kg/injection, schedule: Q04DX002 (ip), vehicle: other) was 90 % of control.

In the case of `CCCCC1CCC(N)CC1` (stereo unspecified), the T/C [16] is reported as 96 % of control.

`CC(C)CC(Br)C(=O)NC(CC(C)C)C(=O)O` (stereo unspecified) was tested, and the T/C [5] was 95 % of control, the T/C [6] was 105 % of control and the T/C [12] was 94 % of control.

`O=S1(=O)OCCC1=C(c1ccccc1)c1ccccc1` was tested, and the T/C (endpoint: mean survival time, dose: 75.0 mg/kg/injection, schedule: Q04DX003 (ip), vehicle: saline) was 95 % of control, the T/C (endpoint: mean survival time, dose: 150.0 mg/kg/injection, schedule: Q04DX003 (ip), vehicle: saline) was 97 % of control and the T/C (endpoint: mean survival time, dose: 300.0 mg/kg/injection, schedule: Q04DX003 (ip), vehicle: saline) was 91 % of control.

With `O=C(NCCc1nc(-c2nc(C(=O)O)cs2)cs1)c1ccccc1` the T/C [4] was 96 % of control, the T/C [9] was 96 % of control and the T/C [11] was 96 % of control.

`CC(=O)N1NC2C(=O)N(C3CCCCC3)CC2C1c1ccc(N(C)C)cc1` (stereo unspecified) was tested, and the T/C [7] was 100 % of control, the T/C [13] was 103 % of control and the T/C [8] was 100 % of control. The T/C [14] was 100 % of control, the T/C [10] was 100 % of control and the T/C [15] was 92 % of control.

`C[n+]1c(/C=C/c2ccc([N+](=O)[O-])cc2)ccc2ccccc21` was tested, and the T/C (endpoint: mean survival time, dose: 6.25 mg/kg/injection, schedule: Q01DX009 (ip), vehicle: saline with Tween-80) was 98 % of control, the T/C (endpoint: mean survival time, dose: 12.5 mg/kg/injection, schedule: Q01DX009 (ip), vehicle: saline with Tween-80) was 102 % of control and the T/C (endpoint: mean survival time, dose: 25.0 mg/kg/injection, schedule: Q04DX003 (ip), vehicle: saline with Tween-80) was 96 % of control.
